“And” between values parts separate entries of the source, which are not always exact repeats. Equal values may be shown once. Inconclusive results and toxic doses are left out. Rule as the data show it: active = T/C of 150% or more; inactive = T/C below 125%.
Tested on: L1210 leukemia ip in BDF1 mice, survival T/C
Test: NCI In Vivo Anticancer Drug Screen. Data for tumor model L1210 Leukemia (intraperitoneal) in B6D2F1 (BDF1) mice
Conditions: endpoint: mean survival time, higher = longer survival
Method in brief: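 Survival endpoint. Drug-treated group vs vehicle group, expressed as T divided by C. Tumor passaged by transplantation.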

[1] = dose: 100.0 mg/kg/injection, schedule: Q01DX009 (ip), vehicle: saline
[2] = dose: 100.0 mg/kg/injection, schedule: Q04DX003 (ip), vehicle: saline
[3] = dose: 200.0 mg/kg/injection, schedule: Q01DX009 (ip), vehicle: saline
[4] = dose: 200.0 mg/kg/injection, schedule: Q04DX003 (ip), vehicle: saline
[5] = dose: 400.0 mg/kg/injection, schedule: Q04DX003 (ip), vehicle: saline
[6] = dose: 100.0 mg/kg/injection, schedule: Q04DX003 (ip), vehicle: Klucel (hydroxypropylcellulose) (HPC)
[7] = dose: 200.0 mg/kg/injection, schedule: Q04DX003 (ip), vehicle: Klucel (hydroxypropylcellulose) (HPC)
[8] = dose: 400.0 mg/kg/injection, schedule: Q04DX003 (ip), vehicle: Klucel (hydroxypropylcellulose) (HPC)
[9] = dose: 50.0 mg/kg/injection, schedule: Q01DX001 (ip), vehicle: saline
[10] = dose: 100.0 mg/kg/injection, schedule: Q01DX001 (ip), vehicle: saline
[11] = dose: 200.0 mg/kg/injection, schedule: Q01DX001 (ip), vehicle: saline
[12] = dose: 100.0 mg/kg/injection, schedule: Q01DX009 (ip), vehicle: Klucel (hydroxypropylcellulose) (HPC)
[13] = dose: 200.0 mg/kg/injection, schedule: Q01DX009 (ip), vehicle: Klucel (hydroxypropylcellulose) (HPC)
[14] = dose: 400.0 mg/kg/injection, schedule: Q01DX009 (ip), vehicle: Klucel (hydroxypropylcellulose) (HPC)
[15] = dose: 50.0 mg/kg/injection, schedule: Q01DX009 (ip), vehicle: Klucel (hydroxypropylcellulose) (HPC)
[16] = dose: 400.0 mg/kg/injection, schedule: Q01DX001 (ip), vehicle: saline
[17] = dose: 75.0 mg/kg/injection, schedule: Q01DX001 (ip), vehicle: saline
[18] = dose: 150.0 mg/kg/injection, schedule: Q01DX001 (ip), vehicle: saline
[19] = dose: 300.0 mg/kg/injection, schedule: Q01DX001 (ip), vehicle: saline

Measured: T/C

CC(=O)CC(=O)NCc1ccncc1
inactive: [1] 97 % of control | [2] 100 % of control | [3] 105 % of control | [4] 102 % of control | dose: 400.0 mg/kg/injection, schedule: Q01DX009 (ip), vehicle: saline 95 % of control | [5] 97 % of control

OCCc1cc2ccccc2s1
inactive: [6] 107 % of control | [7] 103 % of control | [8] 113 % of control

CC(=O)OC1COC(n2cnc3c(N)ncnc32)C(OC(C)=O)C1OC(C)=O (centres undefined)
inactive: [9] 100 % of control | [10] 97 % of control | [11] 100 % of control

NS(=O)(=O)c1ccc(NC(=O)Nc2cccc(Cl)c2Cl)cc1
inactive: [12] 101 % of control | [13] 101 % of control | [14] 95 % of control

CCCN(/C=C/C=C/C=[N+](CCC)CCC)CCC
inactive: dose: 0.03 mg/kg/injection, schedule: Q04DX003 (ip), vehicle: saline 100 % of control | dose: 0.05 mg/kg/injection, schedule: Q04DX003 (ip), vehicle: saline 109 % of control | dose: 0.1 mg/kg/injection, schedule: Q04DX003 (ip), vehicle: saline 98 % of control

CCCOCC(O)C[As](=O)(O)c1cccc(Cl)c1 (centres undefined)
inactive: dose: 6.25 mg/kg/injection, schedule: Q01DX001 (ip), vehicle: saline with Tween-80 104 % of control | dose: 12.5 mg/kg/injection, schedule: Q01DX001 (ip), vehicle: saline with Tween-80 102 % of control | dose: 25.0 mg/kg/injection, schedule: Q01DX001 (ip), vehicle: saline with Tween-80 100 % of control

CC(C)C(C#N)c1ccccc1 (centres undefined)
inactive: dose: 12.5 mg/kg/injection, schedule: Q01DX009 (ip), vehicle: Klucel (hydroxypropylcellulose) (HPC) 97 % of control | dose: 25.0 mg/kg/injection, schedule: Q01DX009 (ip), vehicle: Klucel (hydroxypropylcellulose) (HPC) 100 % of control | dose: 25.0 mg/kg/injection, schedule: Q04DX003 (ip), vehicle: Klucel (hydroxypropylcellulose) (HPC) 96 % of control | [15] 97 % of control | dose: 50.0 mg/kg/injection, schedule: Q04DX003 (ip), vehicle: Klucel (hydroxypropylcellulose) (HPC) 98 % of control

COc1ccc(/C(=N/Nc2ccccc2)C(C)C(O)(C(F)(F)F)C(F)(F)F)cc1 (centres undefined)
inactive: [15] 91 % of control | [12] 92 % of control | [6] 98 % of control | [13] 89 % of control | [7] 90 % of control

CCCCCCCCC(=O)CCCCC
inactive: [1] 92 % of control | [2] 101 % of control | [3] 94 % of control | [4] 105 % of control | [5] 100 % of control

C[C@]1(O)CC[C@H]2[C@@H]3CCC4=CC(=O)CCC4=C3C=C[C@@]21C
inactive: [12] 96 % of control | dose: 100.0 mg/kg/injection, schedule: Q04DX003 (sc), vehicle: Klucel (hydroxypropylcellulose) (HPC) 98 % of control | [13] 96 % of control | dose: 200.0 mg/kg/injection, schedule: Q04DX003 (sc), vehicle: Klucel (hydroxypropylcellulose) (HPC) 95 % of control | [14] 110 % of control | dose: 400.0 mg/kg/injection, schedule: Q04DX003 (sc), vehicle: Klucel (hydroxypropylcellulose) (HPC) 101 % of control

NNC(=O)CC(=O)NN
inactive: [9] 97 % of control | [10] 106 % of control | [2] 110 % of control | [11] 97 % of control | [4] 111 % of control | [16] 97 % of control

COc1ccc(/C=C2\N=C(c3ccccc3)OC2=O)cc1
inactive: [10] 94 % of control | [2] 98 % of control | [11] 95 % of control | [4] 93 % of control | [16] 94 % of control | [5] 93 % of control

Nc1n[nH]c2cc(=O)[nH]c(O)c12
inactive: [17] 98 % of control | [18] 93 % of control | [19] 94 % of control

CC1=C/C(O)CC(=O)Cc2nc(co2)C(=O)N2CCC=C2C(=O)OC(C(C)C)C(C)/C=C\C(=O)NC/C=C\1 (centres undefined)
inactive: dose: 0.5 micrograms/kg/injection, schedule: Q01DX009 (ip), vehicle: saline 95 % of control | dose: 1.0 micrograms/kg/injection, schedule: Q01DX009 (ip), vehicle: saline 93 % of control | dose: 2.0 micrograms/kg/injection, schedule: Q01DX009 (ip), vehicle: saline 104 % of control | dose: 4.0 micrograms/kg/injection, schedule: Q01DX009 (ip), vehicle: saline 104 % of control

COc1ccc2c(c1)C1(C)CCCC(C)(C(=O)O)C1C(Br)C2=O (centres undefined)
inactive: [10] 104 % of control | [11] 101 % of control | [16] 102 % of control

O=C1c2ccccc2C(=O)N1c1ccc(CBr)cc1
inactive: dose: 100.0 mg/kg/injection, schedule: Q01DX001 (ip), vehicle: Klucel (hydroxypropylcellulose) (HPC) 98 % of control | [12] 92 % of control and 94 % of control | dose: 100.0 mg/kg/injection, schedule: Q04DX002 (ip), vehicle: Klucel (hydroxypropylcellulose) (HPC) 106 % of control and 89 % of control | [6] 98 % of control | dose: 200.0 mg/kg/injection, schedule: Q01DX001 (ip), vehicle: Klucel (hydroxypropylcellulose) (HPC) 94 % of control | [13] 89 % of control | dose: 200.0 mg/kg/injection, schedule: Q04DX002 (ip), vehicle: Klucel (hydroxypropylcellulose) (HPC) 97 % of control and 102 % of control | [7] 90 % of control | dose: 400.0 mg/kg/injection, schedule: Q01DX001 (ip), vehicle: Klucel (hydroxypropylcellulose) (HPC) 89 % of control | dose: 400.0 mg/kg/injection, schedule: Q04DX002 (ip), vehicle: Klucel (hydroxypropylcellulose) (HPC) 92 % of control and 115 % of control | [8] 102 % of control

O=C(Nc1ccn(C2OC(CO)C(O)C2O)c(=O)n1)c1ccccc1 (centres undefined)
inactive: [10] 97 % of control | [11] 97 % of control | [16] 86 % of control

Oc1c(CN2CCCC2)cc(Nc2nc(/C=C/c3ccc(Cl)cc3)nc(Cl)c2-c2ccc(Cl)cc2)cc1CN1CCCC1
inactive: [17] 96 % of control | dose: 75.0 mg/kg/injection, schedule: Q04DX003 (ip), vehicle: Klucel (hydroxypropylcellulose) (HPC) 98 % of control | [18] 96 % of control | dose: 150.0 mg/kg/injection, schedule: Q04DX003 (ip), vehicle: Klucel (hydroxypropylcellulose) (HPC) 91 % of control | [19] 93 % of control | dose: 300.0 mg/kg/injection, schedule: Q04DX003 (ip), vehicle: Klucel (hydroxypropylcellulose) (HPC) 91 % of control
